Results: patent publication US11192932B2, “Heparin-binding domain of IGFBP-2 in the treatment of metabolic disorders” (Amolyt Pharma, priority 2018, dated 2021)
“Also recorded” adds a separate entry of the source. No end group written: not given here. *: point of attachment. Stearoyl = CCCCCCCCCCCCCCCCCC(=O)*

Columns and labels:
[1] = system: Akt; assay: Akt phosphorylation (immunoblot anti-Akt pS473) in C2C12 myotubes; type: cell-based, mouse; details: peptide incubated 8 hours (FIG. 6)
Procedure: In particular: HBD1 SEQ ID NO: 73 (C18:0-HLGLEEPKK). The Akt pathway is utilized by both insulin and IGF1 to ultimately induce GLUT4 translocation to the cell membrane to facilitate the uptake and metabolism of glucose.
For signaling studies the cells were prepared the same way except 6-well plates were used. After 6 days incubation in differentiating medium, the cells were washed with serum-free medium. The various treatments were then added in serum free medium containing 0.1% BSA. HBD1 peptides were added and incubated for 8 hours. When utilizing IGF-I, incubation was for 15 minutes after IGF-1 addition. Following incubation the cells were lysed in RIPA buffer and sonicated. The cell lysate was centrifuged and the supernatant analyzed for either Akt or AMPK by SDS PAGE using a 10% gel followed by immunoblotting with the appropriate antibody.
To examine the intracellular transduction pathways utilized by the HBD1 peptides, following treatment with HBD1 peptide SEQ ID NO: 73 (C18:0-HLGLEEPKK), cell lysate proteins were separated by SDS PAGE and immunoblotted with anti-Akt pS473 antibodies.

[2] = system: ob/ob mice; assay: Glucose telemetry and IPGTT in glucose-telemetered ob/ob mice, 28 days of treatment; type: in vivo, mouse; details: for glucose intolerance (3-hour IPGTT profile): glucose telemetered ob/ob mice, 1 and 3 mg/kg s.c. twice daily, 28 days, glucose 1 g/kg i.p., vs vehicle; for 16-hour mean blood glucose levels: day 27, normal fed conditions, vs baseline (Day -1) and vehicle
Procedure: FIG. 2A: 3-hour intraperitoneal glucose tolerance test profiles after 28 days of acylated HBD1 (3-11) fragment treatment. (n=5-8 in each group; p value <0.0001 at both doses vs VHL), Two-way ANOVA with multiple comparison, ****p<0.0001; FIG. 2B: fasting blood glucose levels (average value within 10 min prior to IPGTT) after 28 days of acylated HBD1 (3-11) fragment treatment. (n=5-8 in each group; p value <0.005 at the 3 mg/kg dose vs VHL), Unpaired two-tailed t-test vs VHL, ***p<0.005; FIG. 2C: Areas under the curve of the 3-hour intraperitoneal glucose tolerance test profiles after 28 days of acylated HBD1 (3-11) fragment treatment. (n=5-8 in each group), Unpaired two-tailed t-test vs VHL,*p<0.05, ****p<0.0001.
FIG. 3A: 16-hour mean blood glucose levels before (Day −1) and after 27 days of acylated HBD1 (3-11) fragment treatment. (n=5-8 in each group; **p value <0.001 at the 3 mg/kg dose vs VHL); FIG. 3B: Change from baseline in 16-hour mean blood glucose level after 27 days of acylated HBD1 (3-11) fragment treatment. (n=5-8 in each group; **p value <0.01 at the 3 mg/kg dose vs VHL).
To further assess the effects of HBD1 peptides on glucose and insulin metabolisms, basal blood glucose and glucose response to an intraperitoneal glucose tolerance test (IPGTT) were assessed in glucose-telemetered obese ob/ob mice after twice daily administration of HBD peptides for 28 consecutive days. Implantation of glucose telemetry device (HD-XG, Data Science International) was carried out according to known protocols.
A dose of HBD peptide fragment of SEQ ID NO: 73 (C18:0-HLGLEEPKK) was administered twice daily at 8-hour±1 hour interval between the two daily administrations. 24 V-Lepob/J (Ob/Ob) male mice (The Jackson Laboratory, Farmington, Conn. USA) were administered subcutaneously with vehicle (NaCl 0.9%) (Control group) or with the peptide at 1 and 3 mg/kg (Test groups) (n=5-8 animals for each group) twice daily for 28 days. The first day of dosing was designated as Day 1. Bolus injection was carried out using a sterile syringe and the needle was introduced subcutaneously, 2 to 4 injection sites were used in rotation. The hair of the animals on the injection area was clipped prior to the first injection and then as necessary during the treatment period. The volume administered was 5 mL/kg/administration. Individual dose volumes were calculated using the latest body weight. On day 27, 16-hour mean blood glucose levels were assessed in normal fed conditions. On day 28, fasted (4 hours) mice were injected intraperitoneally with glucose at 1 g/kg. Plasma blood glucose profile (expressed as mg/dL) was recorded every minute up to 3-hour post glucose injection.
Intraperitoneal glucose tolerance test (IPGTT)—On the morning of the IGPTT day (day 28), 2-hour fasted animals were treated with vehicle or with the HBD fragment. Glucose solution was administered 2 hours±15 minutes post-dosing (vehicle or a peptide as set forth in SEQ ID NO: 73 (C18:0-HLGLEEPKK). Blood glucose was monitored from 10 minutes before (fasting condition) to 3-hour post-glucose challenge. Food was re-introduced 4 hours post-glucose challenge. The second treatment of the day (the HBD fragment or vehicle) was performed 2 hours after food re-introduction.

[3] = system: ob/ob mice; assay: Intraperitoneal glucose tolerance test (IPGTT) in ob/ob mice after 15 days of treatment; type: in vivo, mouse; details: 3 mg/kg subcutaneously twice daily for 15 days, overnight fasted, glucose 1 g/kg i.p., vs vehicle
Procedure: Data shown are blood glucose levels (Mean±SEM) 45 min after intraperitoneal glucose tolerance test (IPGTT). (n=5 in each group; ***: p value <0.001).
After being acclimatized 7 days to the laboratory conditions, nine-week-old male B6. V-Lepob/J. mice (Charles River) were subcutaneously administered with vehicle (NaCl 0.9%) or with a peptide as set forth in SEQ ID NO: 73 (C18:0-HLGLEEPKK) at 3 mg/kg (n=5 animals for each group) twice daily for 15 days. On day 15, fasted (overnight) mice were injected intraperitoneally with glucose at 1 g/kg. Plasma blood glucose (expressed as mmol/L) was recorded at 45 minutes post glucose injection.

[4] = listed as acylated HBD1 (3-11) fragment

Substance: C18:0-HLGLEEPKK (Stearoyl-HLGLEEPKK) [SEQ ID NO: 73]
- phosphorylated Akt (pS473) [1]: dose-related increase in phosphorylated Akt; also recorded: dose-dependent phosphorylation (activation) of the Akt pathway
- glucose intolerance (3-hour IPGTT profile) [2]: improved glucose intolerance in a dose-dependent manner
- glucose intolerance (3-hour IPGTT profile) [2, 4]: improves glucose intolerance
- effect on fasting glucose levels and glucose excursion following IPGTT at the high dose ([2]; ob/ob mice, 3 mg/kg twice daily, 4 weeks): marked effect
- glucose excursion following IPGTT ([2]; ob/ob mice, after 4 weeks (28 days), 1 and 3 mg/kg twice daily): decreased
- fasting glucose levels ([2]; ob/ob mice, after 4 weeks (28 days), average within 10 min prior to IPGTT, 1 and 3 mg/kg twice daily): decreased fasting glucose levels
- 16-hour mean blood glucose levels ([2]; ob/ob mice): markedly decrease 16-hour average blood glucose levels
- 16-hour mean blood glucose levels ([2]; ob/ob mice, listed as acylated HBD1 (3-11) fragment): improves glucose intolerance
- blood glucose levels 45 min after intraperitoneal glucose tolerance test (IPGTT) [3]: reduced the plasma glucose levels
- blood glucose levels 45 min after intraperitoneal glucose tolerance test (IPGTT) [3, 4]: improves glucose intolerance
